From patent US10117871B2, “3-hydroxypyrimidine-2,4-dione-5-carboxamides as potent inhibitors of HIV” (Regents of the University of Minnesota, priority 2015, dated 2018) come the findings set out here.

The structures appear in SMILES notation. Read-outs that look alike come from different tables or passages of the source. Where only a bound is given, the exact number is not on record here.

The subject of one data set is CEM-SS cells. Briefly: Compound cytotoxicity (MTS) in the HIV cytoprotection assay. It counts as cell-based. Conditions: for CC50: Concentration resulting in 50% cell death; for Cell viability %: 10 μM, CEM-SS cells. On the procedure: (§1) The antiviral activity of newly synthesized analogues of chemotype 7 was evaluated against HIV-1IIIB in CEM-SS cells using an assay based on viral cytopathic effect (CPE). In this assay, the reduction of CPE was used to indicate the antiviral activity of a compound.
(§2) Briefly virus and cells were mixed in the presence of test compound and incubated for 6 days. […] Each assay plate contained cell control wells (cells only), virus control wells (cells plus virus), compound toxicity control wells (cells plus compound only), compound colorimetric control wells (compound only) as well as experimental wells (compound plus cells plus virus). […] Each assay included AZT as a positive control.

The test system of data set [1] is HIV-1 clone 8070-1 (G140S/Y143H/Q148H). The format is cell-based. Conditions: EC50(mutant)/EC50(WT).
The test system of another data set is HIV-1IIIB. As to the kind of experiment: HIV-1 cytoprotection (CPE reduction) antiviral assay. It counts as cell-based. Conditions: for inhibition at 10 µM: read-out: CPE reduction %. On the procedure: as §1
Briefly virus and cells were mixed in the presence of test compound and incubated for 6 days. […] Each assay plate contained cell control wells (cells only), virus control wells (cells plus virus), compound toxicity control wells (cells plus compound only), compound colorimetric control wells (compound only) as well as experimental wells (compound plus cells plus virus). Cytoprotection and compound cytotoxicity were assessed by MTS (CellTiter® 96 Reagent, Promega, Madison Wis.) and the EC50 (concentration inhibiting virus replication by 50%), CC50 (concentration resulting in 50% cell death) and a calculated TI (therapeutic index CC50/EC50) were provided. Each assay included AZT as a positive control.

The subject of data set [2] is HIV-1 clone 4736-2 (N155H). The format is cell-based. Conditions: EC50(mutant)/EC50(WT).
The test system of data set [3] is HIV-1 clone 8070-2 (G140S/Q148H). It counts as cell-based. Conditions: EC50(mutant)/EC50(WT).
The subject of data set [4] is HIV-1 clone 1556-1 (Y143C). It counts as cell-based. Conditions: EC50(mutant)/EC50(WT).
A further data set deals with T1, HIV-1 integrase (Human immunodeficiency virus type 1 group M subtype B, UniProt P04585).
T1 construct: HIV integrase was expressed and purified as previously reported; made in house; host or cells: Escherichia coli
Briefly: HIV-1 integrase strand transfer (INST) assay. The format is biochemical. On the procedure: HIV integrase was expressed and purified as previously reported.^43 Inhibition assays were performed using a modified protocol of a reported method.^43 Briefly, 2.1 μL of compound suspended in DMSO was placed in duplicate into a Black 96 well non-binding plate (coming 3991). Compounds were plated in duplicate to a final concentration of 0.13-100 μM. To each well of the plate 186.9 μL of reaction mixture without DNA substrate was added (10 mM HEPES pH 7.5, 10% glycerol w/v, 10 mM MnCl2, 1 mM DTT, 1 μM integrase). The enzyme was incubated with inhibitor for 10 min at 25° C. after which the reaction was initiated by the addition of 21 μL of 500 nM oligo (5′ biotin […] annealed with […] 3′ Cy5). Reactions were incubated at 37° C. for 30 min and then quenched by the addition of 5.2 μL 500 mM EDTA. Each reaction was moved (200 μL) to a MultiScreen HTS PCR plate (Millipore MSSLBPC10) containing 20 μL streptavidin agarose beads (Life Technologies S951) and incubated with shaking for 30 min. A vacuum manifold was used to remove the reaction mixture and the beads were similarly washed 3 times with wash buffer (0.05% SDS, 1 mM EDTA in PBS). The plates were further washed 3 times with 200 μL 50 mM NaOH to denature DNA not covalently linked to the biotin modification. For each denaturation step the plate was incubated with shaking at 25° C. for 5 min and the NaOH was removed by centrifugation at 1000 g for 1 min. The reaction products were eluted from the beads by the addition of 150 μL formamide. The plate was incubated at 25° C. for 10 min and read directly at 635/675 in a SpectraMax i3 plate reader (Molecular Devices). Expression and purification of the recombinant IN in Escherichia coli were performed as previously reported^39, 44 with addition of 10% glycerol to all buffers. Preparation of oligonucleotide substrates has been described.^45 Integrase reactions were performed in 10 μL with 400 nM of recombinant IN, 20 nM of 5′-end [^32P]-labeled oligonucleotide substrate and inhibitors at various concentrations. Solutions of 10% DMSO without inhibitors were used as controls. Reactions were incubated at 37° C. (60 minutes) in buffer containing 50 mM MOPS, pH 7.2, 7.5 mM MgCl2, and 14.3 mM 2-mercaptoethanol. Reactions were stopped by addition of 10 μL of loading dye (10 mM EDTA, 98% deionized formamide, 0.025% xylene cyanol and 0.025% bromophenol blue). Reactions were then subjected to electrophoresis in 20% polyacrylamide-7 M urea gels. Gels were dried and reaction products were visualized and quantitated with a Typhoon 8600 (GE Healthcare, Little Chalfont, Buckinghamshire, UK). Densitometric analyses were performed using ImageQuant from Molecular Dynamics Inc. The concentrations at which enzyme activity was reduced by 50% (IC50) were determined using “Prism” software (GraphPad Software, San Diego, Calif.) for nonlinear regression to fit dose-response data to logistic curve models.

A short description of data set [5]: Compound cytotoxicity (MTS) in the HIV cytoprotection assay. The format is cell-based. Conditions: human. On the procedure: as §1, §2
A short description of data set [6]: Aqueous stability in DPBS. The format is physicochemical. Conditions: DPBS (37° C.) over a 24 h period. The procedure: To assess drug-like properties of chemotype 7, selected analogues were tested in various in vitro ADME studies (Table 5). Aqueous stability and solubility were evaluated in Dulbecco's Phosphate-Buffered Saline (DPBS). […] Assessment of plasma and microsomal stability as well as plasma protein binding was done in two species, human and mouse. […] Microsomal stability of the compounds were evaluated in liver microsomes using either NADPH (phase I) or UDPGA (phase II) as cofactor.

The mark [7] stands for this setting: Human immunodeficiency virus 1, 10 μM, HIV-1IIIB in CEM-SS cells.

`Cc1cn([C@H]2C[C@H](N=[N+]=[N-])[C@@H](CO)O2)c(=O)[nH]c1=O` [AZT, reference compound]: the CC50 (in general, the concentration at which the toxic effect on the cells reaches its halfway point) in the data set on CEM-SS cells is greater than 10000 nM. The Fold-resistance was found to be 0.9 in data set [1], 0.7 in data set [2], 0.5 in data set [3] and 1.4 in [4]. In addition, the EC50 (commonly the concentration needed to bring the measured effect to its halfway point) with HIV-1IIIB (Concentration inhibiting virus replication by 50%, dose response, read-out: EC50) turned out to be 80 nM.

With `CCNc1[nH]c(=O)n(O)c(=O)c1C(=O)NCc1cc(F)ccc1F` [Compound 7-xvii, N-(2,5-Difluorobenzyl)-1-(hydroxy)-4-(ethylamino)-1,2,3,6-tetrahydro-2,6-dioxopyrimidine-5-carboxamide], the values for the IC50 on HIV-1 integrase (read-out: IC50 (ST)) and at HIV-1 integrase (read-out: INST IC50) were 21 to 77 nM and 68 ± 11 nM, respectively. Moreover, half-maximal cytotoxicity in data set [5] (CC50 at 6 days) was put at 47000 nM. Besides, the Cell viability % in the data set on CEM-SS cells is listed as 92%. The inhibition at 10 µM in the data set with HIV-1IIIB (Human immunodeficiency virus 1, CEM-SS) worked out at 100%. For the same compound, the EC50 with HIV-1IIIB (Human immunodeficiency virus 1, Concentration inhibiting virus replication by 50%, dose response, read-out: EC50) is 32 nM; in the data set on HIV-1IIIB (Human immunodeficiency virus 1, summary of Table 2, read-out: EC50) it was 15 to 61 nM.

On to `CCNc1[nH]c(=O)n(O)c(=O)c1C(=O)NCc1ccc(Cl)c(F)c1` [Compound 7-xxii, N-(4-Chloro-3-fluorobenzyl)-1-(hydroxy)-4-(ethylamino)-1,2,3,6-tetrahydro-2,6-dioxopyrimidine-5-carboxamide], for which, at HIV-1 integrase (read-out: INST IC50), the IC50 (in general, the concentration needed to halve the response being measured) came to 120 ± 21 nM. In the data set with CEM-SS cells, this compound returned a Cell viability % of 100% and a CC50 of 19000 nM. In the data set with HIV-1IIIB (Human immunodeficiency virus 1), this compound yielded an EC50 of 190 nM. Also, in the data set on HIV-1IIIB (setting [7]), the inhibition at 10 µM came to 100%. In addition, the “remaining in DPBS” value in data set [6] came out at 86%.

With `CCNc1[nH]c(=O)n(O)c(=O)c1C(=O)NCc1cccc(Cl)c1F` [Compound 7-xxiii, N-(3-Chloro-2-fluorobenzyl)-1-(hydroxy)-4-(ethylamino)-1,2,3,6-tetrahydro-2,6-dioxopyrimidine-5-carboxamide], the IC50 at HIV-1 integrase (read-out: INST IC50) was found to be 21 ± 2 nM. This compound yielded a Cell viability % with CEM-SS cells of 100%. In the data set on CEM-SS cells, this compound had a CC50 of 18000 nM. In addition, the Fold-resistance in [1] came out at 6.3; in data set [2] it was 2.4; in data set [3] it was 13; in data set [4], 0.4. The EC50 in the data set with HIV-1IIIB (Human immunodeficiency virus 1) turned out to be 15 nM. In the data set on HIV-1IIIB (setting [7]), the inhibition at 10 µM was 100%.
